From patent US20250215371A1, “MOTOR UNIT CHIP, MANUFACTURING METHOD THEREOF AND METHOD OF DETECTING PATHOLOGICAL EVENT USING THE SAME” (Taipei Medical University, priority 2023, published 2025)

Legend:
Type in all cases: cell-based, mouse
Schwann cells = assay: Calcium imaging (fura-2) of Schwann cells in the tri-culture; settings: 50 mM extracellular K^+ or 10 μM ACh
Protocol: After loading indicator, coverslips were washed in fresh HBSS for 10 mins at 37° C. and then transferred to an imaging chamber for microscopy experiments. Fura-2 imaging was performed on an Olympus IX71 microscope using a 20× objective lens. Excitation wavelength was selected with a galvanometer-driven monochromator (8 nm slit width) coupled to a 75 W xenon arc lamp (Optoscan; Cairn Research). […] A single image was acquired at 610 nm to identify mApple expressing MNs in the field. Fluorescent images were captured using a cooled charge-coupled device camera (Cascade 512B; Roper Scientific) and Metafluor acquisition software (Molecular Devices). All fura-2 experiments were performed in HBSS buffer at room temperature. To depolarize MNs the extracellular K^+ concentration was increased to 50 mM with K^+ exchanged reciprocally for Na+in HHBS. For myotube stimulation 10 μM ACh was applied by bath perfusion. A 60 s baseline in HHBS was acquired before stimulation of each coverslip. High K^+ was applied for 30 s and ACh for 1 min. After stimulus application, a washout of 60 s was performed. Background images were acquired after each experiment; the coverslip was wiped clean, then 20 frames were acquired using the same parameters as above. Images were processed using MetaFluor Analyst to draw regions of interest (ROIs), subtract background, and generate 340/380 ratios. […]

MNs = assay: Calcium imaging (fura-2) of motor neurons in the motor unit chip; settings: n=8 fields
Protocol: (§1) Tri-cultures on 12.5 mm glass coverslips were briefly washed in HEPES Hanks' Buffer Solution (HHBS) (5.6 mM glucose, 20 mM Hepes, 3 mM NaHCO3, 0.3 mM Na2HPO4, 0.4 mM KH2PO4, 137 mM NaCl, 5.0 mM KCl, […], 4.1 mM MgSO4, 1.26 mM CaCl2, pH=7.4) and then the coverslip was incubated with fura-2 AM in 0.04% pluronic acid dissolved in HHBS to a final concentration of 20 μM for 30 mins at 37° C. After loading indicator, coverslips were washed in fresh HBSS for 10 mins at 37° C. and then transferred to an imaging chamber for microscopy experiments. Fura-2 imaging was performed on an Olympus IX71 microscope using a 20× objective lens. […] Intracellular Ca^2+ concentration ([Ca^2+]i) was monitored by sequential excitation (1 Hz) of fura-2 at 340 and 380 nm. […]
(§2) Images were processed using MetaFluor Analyst to draw regions of interest (ROIs), subtract background, and generate 340/380 ratios. […] Criterion “1” was empirically determined to exclude cells with poor signal to noise ratio. […]
(§3) Data were analyzed using the Student's t test. […] For statistical analyses of calcium image, MN and myotube data were assessed for normality using the D′Agostino-Pearson normality test. […] Percent responders was calculated using number of responders/total MNs or myotubes in the field.

myotubes = assay: Calcium imaging (fura-2) of myotubes in the motor unit chip; settings: n=8 fields
Protocol: as §1, §2, §3

| SMILES | changes in [Ca^2+]i in Schwann cells (Schwann cells) | MNs responded to 50 mM K^+ stimulation (percent responders) (MNs; 50 mM K^+ for 30 s, 43/62 cells) [%] | depolarization-evoked peak 340/380 ratio ([Ca^2+]i) (MNs; 50 mM K^+, basal 340/380 ratio 0.62±0.06, mean ±SD) | myotubes responded to ACh stimulation (percent responders) (myotubes; 10 μM ACh for 60 s, 24/27 cells) [%] | ACh-evoked peak 340/380 ratio ([Ca^2+]i) (myotubes; 10 μM ACh, basal 340/380 ratio 0.68±0.12, mean ±SD) |
| --- | --- | --- | --- | --- | --- |
| [Cl-].[K+] [K^+] | did not show any changes in [Ca^2+]i | 70 | 1.83±1.41 | – | – |
| CC(=O)OCC[N+](C)(C)C [ACh, acetylcholine] | – | – | – | 89 | 3.62±2.73 |
